Experimental data from article PMC3371188 (Applied Microbiology and Biotechnology, 2012).

Molecular target: AldO (Streptomyces coelicolor, UniProt Q9ZBU1)
Experiment: HRP-coupled H2O2 assay, thermostability and temperature optimum
Assay type: biochemical
Conditions: 10 mM xylitol; 50 mM potassium phosphate pH 7.5

AldO, sequence (Q9ZBU1 whole entry): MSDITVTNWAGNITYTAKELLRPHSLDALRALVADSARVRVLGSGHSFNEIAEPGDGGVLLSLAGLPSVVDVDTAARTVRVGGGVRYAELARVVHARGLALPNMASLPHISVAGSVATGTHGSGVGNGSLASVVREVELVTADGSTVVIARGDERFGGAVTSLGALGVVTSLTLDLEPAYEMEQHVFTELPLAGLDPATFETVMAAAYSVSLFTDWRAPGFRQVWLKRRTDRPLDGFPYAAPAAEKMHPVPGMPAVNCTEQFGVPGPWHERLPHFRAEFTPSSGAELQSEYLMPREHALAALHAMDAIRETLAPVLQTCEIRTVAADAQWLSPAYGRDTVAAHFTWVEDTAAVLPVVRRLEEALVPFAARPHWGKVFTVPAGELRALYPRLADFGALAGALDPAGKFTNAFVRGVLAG

`OC[C@@H](O)[C@H](O)[C@@H](O)CO` [xylitol] was tested, and the “HRP-coupled H2O2 assay, thermostability and temperature optimum” value was “Oxidase activity with xylitol as substrate was measured after enzyme solutions had been incubated”.
